According to ChEMBL document CHEMBL3525916, “Investigation of figopitant and its metabolites in rat tissue by combining whole-body autoradiography with liquid extraction surface analysis mass spectrometry” (Drug Metab Dispos, 2012):

What was measured:
Design in all cases: dose 5 mg/kg, route intravenous
Conditions in all cases: in vivo
[1] = test system: Pancreas; experiment: Biodistribution in albino Wistar Hannover rat pancreas at 5 mg/kg, iv after 24 hrs by autoradiography analysis; format: ADME, organism-based
[2] = test system: Rattus norvegicus; experiment: Biodistribution in albino Wistar Hannover rat adipose tissue at 5 mg/kg, iv after 24 hrs by autoradiography analysis; format: ADME, organism-based
[3] = test system: Lung; experiment: Biodistribution in albino Wistar Hannover rat lung at 5 mg/kg, iv after 24 hrs by autoradiography analysis; format: ADME, organism-based
[4] = test system: Rattus norvegicus; experiment: Biodistribution in albino Wistar Hannover rat testis at 5 mg/kg, iv after 24 hrs by autoradiography analysis; format: ADME, organism-based
[5] = test system: Rattus norvegicus; experiment: Biodistribution in albino Wistar Hannover rat myocardium at 5 mg/kg, iv after 24 hrs by autoradiography analysis; format: ADME, organism-based
[6] = test system: Spleen; experiment: Biodistribution in albino Wistar Hannover rat spleen at 5 mg/kg, iv after 24 hrs by autoradiography analysis; format: ADME, organism-based
[7] = test system: Thymus; experiment: Biodistribution in albino Wistar Hannover rat thymus at 5 mg/kg, iv after 24 hrs by autoradiography analysis; format: ADME, organism-based
[8] = test system: Blood; experiment: Biodistribution in albino Wistar Hannover rat whole blood at 5 mg/kg, iv after 24 hrs by liquid scintillation counting; format: ADME, organism-based
[9] = test system: Plasma; experiment: Biodistribution in albino Wistar Hannover rat plasma at 5 mg/kg, iv after 24 hrs by liquid scintillation counting; format: ADME, organism-based
[10] = test system: Brain; experiment: Biodistribution in albino Wistar Hannover rat brain at 5 mg/kg, iv after 24 hrs by autoradiography analysis; format: ADME, organism-based
[11] = test system: Harderian gland; experiment: Biodistribution in albino Wistar Hannover rat harderian gland at 5 mg/kg, iv after 24 hrs by autoradiography analysis; format: ADME, organism-based
[12] = test system: Zone of skin; experiment: Biodistribution in albino Wistar Hannover rat skin at 5 mg/kg, iv after 24 hrs by autoradiography analysis; format: ADME, organism-based
[13] = Half life in albino Wistar Hannover rat muscle caudal at 5 mg/kg, iv by autoradiography analysis; format: ADME, organism-based, Muscle tissue
[14] = Half life in albino Wistar Hannover rat salivary gland at 5 mg/kg, iv by autoradiography analysis; format: ADME, organism-based
[15] = test system: Liver; experiment: Half life in albino Wistar Hannover rat liver at 5 mg/kg, iv by autoradiography analysis; format: ADME, organism-based
[16] = Half life in albino Wistar Hannover rat adipose tissue at 5 mg/kg, iv by autoradiography analysis; format: ADME, organism-based
[17] = Retention time in albino Wistar Hannover rat at 5 mg/kg, iv; format: ADME, organism-based
[18] = test system: Lung; experiment: Drug uptake in albino Wistar Hannover rat lung at 5 mg/kg, iv by LESA-MS analysis; format: ADME, organism-based
[19] = test system: Blood; experiment: Biodistribution in albino Wistar Hannover rat whole blood at 5 mg/kg, iv after 4 hrs by liquid scintillation counting; format: ADME, organism-based
[20] = test system: Rattus norvegicus; experiment: Biodistribution in albino Wistar Hannover rat muscle cranial at 5 mg/kg, iv after 24 hrs by autoradiography analysis; format: ADME, organism-based, Muscle tissue
[21] = test system: Rattus norvegicus; experiment: Biodistribution in albino Wistar Hannover rat tongue at 5 mg/kg, iv after 24 hrs by autoradiography analysis; format: ADME, organism-based
[22] = test system: Blood; experiment: Half life in albino Wistar Hannover rat whole blood at 5 mg/kg, iv by liquid scintillation counting; format: ADME, organism-based
[23] = test system: Plasma; experiment: Half life in albino Wistar Hannover rat plasma at 5 mg/kg, iv by liquid scintillation counting; format: ADME, organism-based
[24] = Drug uptake in albino Wistar Hannover rat harder's gland at 5 mg/kg, iv by LESA-MS analysis; format: ADME, organism-based, Harderian gland
[25] = test system: Muscle tissue; experiment: Drug uptake in albino Wistar Hannover rat muscle at 5 mg/kg, iv by LESA-MS analysis; format: ADME, organism-based
[26] = test system: Brain; experiment: Drug uptake in albino Wistar Hannover rat brain at 5 mg/kg, iv by LESA-MS analysis; format: ADME, organism-based
[27] = Drug uptake in albino Wistar Hannover rat brown fat at 5 mg/kg, iv by LESA-MS analysis; format: ADME, organism-based, Brown adipose tissue
[28] = Drug uptake in albino Wistar Hannover rat salivary gland at 5 mg/kg, iv by LESA-MS analysis; format: ADME, organism-based
[29] = Drug uptake in albino Wistar Hannover rat white fat at 5 mg/kg, iv by LESA-MS analysis; format: ADME, organism-based, White adipose tissue
[30] = Drug uptake in albino Wistar Hannover rat myocardium at 5 mg/kg, iv by LESA-MS analysis; format: ADME, organism-based
[31] = test system: Pancreas; experiment: Drug uptake in albino Wistar Hannover rat pancreas at 5 mg/kg, iv by LESA-MS analysis; format: ADME, organism-based
[32] = test system: Thymus; experiment: Drug uptake in albino Wistar Hannover rat thymus at 5 mg/kg, iv by LESA-MS analysis; format: ADME, organism-based
[33] = test system: Stomach; experiment: Drug uptake in albino Wistar Hannover rat stomach at 5 mg/kg, iv by LESA-MS analysis; format: ADME, organism-based
[34] = test system: Rattus norvegicus; experiment: Biodistribution in albino Wistar Hannover rat muscle caudal at 5 mg/kg, iv after 5 mins by autoradiography analysis; format: ADME, organism-based, Muscle tissue
[35] = test system: Liver; experiment: Biodistribution in albino Wistar Hannover rat liver at 5 mg/kg, iv after 5 mins by autoradiography analysis; format: ADME, organism-based
[36] = test system: Rattus norvegicus; experiment: Biodistribution in albino Wistar Hannover rat renal cortex at 5 mg/kg, iv after 5 mins by autoradiography analysis; format: ADME, organism-based
[37] = test system: Rattus norvegicus; experiment: Biodistribution in albino Wistar Hannover rat testis at 5 mg/kg, iv after 5 mins by autoradiography analysis; format: ADME, organism-based
[38] = test system: Rattus norvegicus; experiment: Biodistribution in albino Wistar Hannover rat adrenal cortex at 5 mg/kg, iv after 5 mins by autoradiography analysis; format: ADME, organism-based
[39] = test system: Pituitary gland; experiment: Biodistribution in albino Wistar Hannover rat pituitary at 5 mg/kg, iv after 5 mins by autoradiography analysis; format: ADME, organism-based
[40] = test system: Rattus norvegicus; experiment: Biodistribution in albino Wistar Hannover rat myocardium at 5 mg/kg, iv after 5 mins by autoradiography analysis; format: ADME, organism-based
[41] = test system: Spleen; experiment: Biodistribution in albino Wistar Hannover rat spleen at 5 mg/kg, iv after 5 mins by autoradiography analysis; format: ADME, organism-based
[42] = test system: Thymus; experiment: Biodistribution in albino Wistar Hannover rat thymus at 5 mg/kg, iv after 5 mins by autoradiography analysis; format: ADME, organism-based
[43] = test system: Rattus norvegicus; experiment: Biodistribution in albino Wistar Hannover rat bone marrow at 5 mg/kg, iv after 5 mins by autoradiography analysis; format: ADME, organism-based
[44] = test system: Zone of skin; experiment: Biodistribution in albino Wistar Hannover rat skin at 5 mg/kg, iv after 5 mins by autoradiography analysis; format: ADME, organism-based
[45] = test system: Rattus norvegicus; experiment: Biodistribution in albino Wistar Hannover rat muscle cranial at 5 mg/kg, iv after 4 hrs by autoradiography analysis; format: ADME, organism-based, Muscle tissue
[46] = test system: Rattus norvegicus; experiment: Biodistribution in albino Wistar Hannover rat tongue at 5 mg/kg, iv after 4 hrs by autoradiography analysis; format: ADME, organism-based
[47] = test system: Liver; experiment: Biodistribution in albino Wistar Hannover rat liver at 5 mg/kg, iv after 4 hrs by autoradiography analysis; format: ADME, organism-based
[48] = test system: Pancreas; experiment: Biodistribution in albino Wistar Hannover rat pancreas at 5 mg/kg, iv after 4 hrs by autoradiography analysis; format: ADME, organism-based
[49] = test system: Lung; experiment: Biodistribution in albino Wistar Hannover rat lung at 5 mg/kg, iv after 4 hrs by autoradiography analysis; format: ADME, organism-based
[50] = test system: Rattus norvegicus; experiment: Biodistribution in albino Wistar Hannover rat testis at 5 mg/kg, iv after 4 hrs by autoradiography analysis; format: ADME, organism-based
[51] = test system: Rattus norvegicus; experiment: Biodistribution in albino Wistar Hannover rat adrenal cortex at 5 mg/kg, iv after 4 hrs by autoradiography analysis; format: ADME, organism-based
[52] = test system: Pituitary gland; experiment: Biodistribution in albino Wistar Hannover rat pituitary at 5 mg/kg, iv after 4 hrs by autoradiography analysis; format: ADME, organism-based
[53] = test system: Rattus norvegicus; experiment: Biodistribution in albino Wistar Hannover rat myocardium at 5 mg/kg, iv after 4 hrs by autoradiography analysis; format: ADME, organism-based

Drug uptake [1]: 4138 ngequiv/g | Drug uptake [2]: 113 ngequiv/g | Drug uptake [3]: 1708 ngequiv/g | Drug uptake [4]: 633 ngequiv/g | Drug uptake [5]: 1207 ngequiv/g | Drug uptake [6]: 3306 ngequiv/g | Drug uptake [7]: 1746 ngequiv/g | Drug uptake [8]: 122 ngequiv/g | Drug uptake [9]: 80 ngequiv/g | Drug uptake [10]: 50 ngequiv/g | Drug uptake [11]: 6246 ngequiv/g | Drug uptake [12]: 606 ngequiv/g | t1/2 [13]: 19.7 h | t1/2 [14]: 20.3 h | t1/2 [15]: 31.2 h | t1/2 [16]: 27.1 h | Retention time [17]: 0.358 h | Drug uptake [18]: 38.9% | Drug uptake [19]: 361 ngequiv/g | Drug uptake [20]: 671 ngequiv/g | Drug uptake [21]: 891 ngequiv/g | t1/2 [22]: 38.6 h | t1/2 [23]: 21.9 h | Drug uptake [24]: 79.9% | Drug uptake [25]: 36.5% | Drug uptake [26]: 75.6% | Drug uptake [27]: 47.1% | Drug uptake [28]: 42.5% | Drug uptake [29]: 100% | Drug uptake [30]: 22.6% | Drug uptake [31]: 23.7% | Drug uptake [32]: 67.2% | Drug uptake [33]: 34.6% | Drug uptake [34]: 6936 ngequiv/g | Drug uptake [35]: 5984 ngequiv/g | Drug uptake [36]: 19088 ngequiv/g | Drug uptake [37]: 938 ngequiv/g | Drug uptake [38]: 21006 ngequiv/g | Drug uptake [39]: 8110 ngequiv/g | Drug uptake [40]: 13504 ngequiv/g | Drug uptake [41]: 7308 ngequiv/g | Drug uptake [42]: 3243 ngequiv/g | Drug uptake [43]: 4445 ngequiv/g | Drug uptake [44]: 1743 ngequiv/g | Drug uptake [45]: 2972 ngequiv/g | Drug uptake [46]: 3786 ngequiv/g | Drug uptake [47]: 13851 ngequiv/g | Drug uptake [48]: 12820 ngequiv/g | Drug uptake [49]: 10036 ngequiv/g | Drug uptake [50]: 1510 ngequiv/g | Drug uptake [51]: 11078 ngequiv/g | Drug uptake [52]: 7747 ngequiv/g | Drug uptake [53]: 4240 ngequiv/g
SMILES: CN(CCc1cc(C(F)(F)F)cc(C(F)(F)F)c1)C(=O)[C@H](c1ccccc1)N1CCN(CC2CC2)CC1.Cl.O
